Source: BindingDB's records for doi:10.1021/jm701487t (F. Hoffmann-La Roche, 2008)

Molecular target: Cannabinoid receptor 2 (Homo sapiens, UniProt P34972)
Sequence (P34972 whole entry): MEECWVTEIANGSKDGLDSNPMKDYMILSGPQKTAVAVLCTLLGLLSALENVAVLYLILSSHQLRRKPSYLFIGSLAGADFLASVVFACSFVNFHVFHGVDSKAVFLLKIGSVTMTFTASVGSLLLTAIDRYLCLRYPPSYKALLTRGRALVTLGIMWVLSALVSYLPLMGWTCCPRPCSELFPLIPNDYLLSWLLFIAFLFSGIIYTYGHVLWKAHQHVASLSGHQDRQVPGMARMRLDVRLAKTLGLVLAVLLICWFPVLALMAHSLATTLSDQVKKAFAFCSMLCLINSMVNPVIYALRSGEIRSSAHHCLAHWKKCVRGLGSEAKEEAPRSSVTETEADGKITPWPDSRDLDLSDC

Question: For `O=C(c1cc2c(cc1F)OC(c1ccc(F)cc1)(c1ccc(Cl)cc1Cl)O2)N1CCOCC1` (stereo unspecified) [CAS_24828562], which Ki is on record?
Answer: 3 nM
